Measurements taken from patent publication US8044211B2 (Chroma Therapeutics Ltd., priority 2006, dated 2011).

Target: T1, p38 MAP Kinase a (Homo sapiens, UniProt Q16539)
T1 construct: purchased Upstate (Dundee UK)
Assay: p38 MAP Kinase activity, radiometric filter-binding assay (Upstate)
Format: biochemical
Settings: IC50 range; ATP at or close to Km; read-out: Inhibitor activity versus p38 MAPKa
Procedure: The ability of compounds to inhibit p38 MAP a Kinase activity was measured in an assay performed by Upstate (Dundee UK). In a final reaction volume of 25 μL, p38 MAP Kinase a (5-10 mU) is incubated with 25 mM Tris pH 7.5, 0.002 mMEGTA, 0.33 mg/mL myelin basic protein, 10 mM MgAcetate and [g-33P-ATP] (specific activity approx. 500 cpm/pmol, concentration as required). The reaction is initiated by the addition of the MgATP mix. After incubation for 40 minutes at room temperature, the reaction is stopped by the addition of 5 μL of a 3% phosphoric acid solution. 10 μL of the reaction is then spotted onto a P30 filtermat and washed three times for 5 minutes in 75 mM phosphoric acid and once in methanol prior to drying and scintillation counting.
Duplicate data points are generated from a ⅓ log dilution series of a stock solution in DMSO. Nine dilutions steps are made from a top concentration of 10 μM, and a ‘no compound’ blank is included. The standard radiometric filter-binding assay is performed at an ATP concentration at, or close to, the Km. Data from scintillation counts are collected and subjected to free-fit analysis by Prism software. From the curve generated, the concentration giving 50% inhibition is determined and reported.

T1 sequence (Q16539 whole entry): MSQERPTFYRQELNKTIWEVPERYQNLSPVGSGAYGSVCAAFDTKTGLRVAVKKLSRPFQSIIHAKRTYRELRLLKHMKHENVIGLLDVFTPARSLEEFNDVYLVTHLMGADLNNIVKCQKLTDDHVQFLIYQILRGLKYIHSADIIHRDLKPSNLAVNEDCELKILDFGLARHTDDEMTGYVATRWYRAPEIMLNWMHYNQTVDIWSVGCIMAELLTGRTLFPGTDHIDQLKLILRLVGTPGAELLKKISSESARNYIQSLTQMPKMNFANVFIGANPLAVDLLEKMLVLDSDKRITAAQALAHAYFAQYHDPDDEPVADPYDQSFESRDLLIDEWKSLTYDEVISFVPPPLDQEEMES

Row | SMILES | IC50 [nM]
1 | Nc1c(C(=O)c2ccc(F)cc2F)ccc(=O)n1-c1ccc(CN[C@@H](Cc2ccccc2)C(=O)O)cc1 [Example 73, (S)-2-{4-[6-Amino-5-(2,4-difluorobenzoyl)-2-oxo-2H-pyridin-1-yl]benzylamino}-3-phenylpropionic acid] | < 100
2 | Cc1cc(C(=O)c2ccc(=O)n(-c3ccc(OCCCN[C@H](C(=O)O)c4ccccc4)cc3)c2N)ccc1F [Example 87] | 100 to 1000
3 | Nc1c(C(=O)c2ccc(F)cc2)ccc(=O)n1C1CCC(N[C@@H](Cc2ccccc2)C(=O)O)CC1 (stereo partly drawn) [Example 105, (S)-2-{4-[6-Amino-5-(4-fluorobenzoyl)-2-oxo-2H-pyridin-1-yl]cyclohexylamino}-3-phenylpropionic acid] | 100 to 1000
4 | Nc1c(C(=O)c2ccc(F)cc2)ccc(=O)n1-c1c(F)cc(OC2CCC(N[C@@H](Cc3ccccc3)C(=O)O)CC2)cc1F (stereo partly shown) [Example 102] | < 100
5 | Nc1c(C(=O)c2ccc(F)cc2)ccc(=O)n1-c1ccc(CN[C@H](C(=O)O)c2ccccc2)cc1 [Example 75, (S)-{4-[6-Amino-5-(4-fluorobenzoyl)-2-oxo-2H-pyridin-1-yl]benzylamino}phenylacetic acid] | 100 to 1000
6 | Nc1c(C(=O)c2ccc(F)cc2)ccc(=O)n1-c1c(F)cc(CN[C@@H](Cc2ccccc2)C(=O)O)cc1F [Example 92] | < 100
7 | CC(C)C[C@H](NCCc1ccc(-n2c(N)c(C(=O)c3ccc(F)cc3)ccc2=O)cc1)C(=O)O [Example 111, N-[2-(4-{6-amino-5-[(4-fluorophenyl)carbonyl]-2-oxopyridin-1 (2H)-yl}phenyl)ethyl]-L-leucine] | 100 to 1000
8 | Nc1c(C(=O)c2ccc(F)cc2)ccc(=O)n1-c1ccc(CCN[C@H](C(=O)O)c2ccccc2)cc1 [Example 118] | < 100
9 | Nc1c(C(=O)c2ccc(F)cc2)ccc(=O)n1-c1c(F)cc(OC2CCC(N[C@H](C(=O)O)c3ccccc3)CC2)cc1F (stereo partly drawn) [Example 103, (2S)-[(4-{4-[6-amino-5-(4-fluorobenzoyl)-2-oxopyridin-1(2H)-yl]-3,5-difluorophenoxy}cyclohexyl)amino](phenyl)acetic acid] | < 100
10 | Nc1c(C(=O)c2ccc(F)cc2)ccc(=O)n1-c1ccc(OCCCN[C@H](C(=O)O)c2ccccc2)cc1 [Example 94, (S)-(3-{4-[6-Amino-5-(4-fluorobenzoyl)-2-oxo-2H-pyridin-1-yl]-Phenoxy}propylamino)phenylacetic acid] | < 100
11 | Nc1c(C(=O)c2ccc(F)cc2F)ccc(=O)n1-c1ccc(OCCCN[C@H](C(=O)O)c2ccccc2)cc1 [Example 84, (S)-(3-{4-[6-Amino-5-(2,4-difluorobenzoyl)-2-oxo-2H-pyridin-1-yl]-phenoxy}propylamino)phenyl acetic acid] | < 100
12 | Cc1cc(C(=O)c2ccc(=O)n(-c3ccc(CN[C@@H](CC(C)C)C(=O)O)cc3)c2N)ccc1F [Example 81, (S)-2-{4-[6-Amino-5-(3-Methyl-4-fluorobenzoyl)-2-oxo-2H-pyridin-1-yl]benzylamino}-4-methylpentanoic acid] | 100 to 1000
13 | Nc1c(C(=O)c2ccc(F)cc2)ccc(=O)n1-c1ccc(OCCCN[C@@H](Cc2ccccc2)C(=O)O)cc1 [Example 82] | < 100
14 | Nc1c(C(=O)c2ccc(F)cc2F)ccc(=O)n1-c1ccc(CN[C@H](C(=O)O)c2ccccc2)cc1 [Example 72, (S)-{4-[6-Amino-5-(2,4-difluorobenzoyl)-2-oxo-2H-pyridin-1-yl]benzylamino}phenylacetic acid] | < 100
15 | CC(C)C[C@H](NC1CCC(Oc2cc(F)c(-n3c(N)c(C(=O)c4ccc(F)cc4)ccc3=O)c(F)c2)CC1)C(=O)O (stereo partly drawn) [Example 104, N-(4-{4-[6-amino-5-(4-fluorobenzoyl)-2-oxopyridin-1(2H)-yl]-3,5-difluorophenoxy}cyclohexyl)-L-leucine] | < 100
16 | Cc1cc(C(=O)c2ccc(=O)n(-c3ccc(CN[C@@H](Cc4ccccc4)C(=O)O)cc3)c2N)ccc1F [Example 80, (S)-2-{4-[6-Amino-5-(3-methyl-4-fluorobenzoyl)-2-oxo-2H-pyridin-1-yl]benzylamino}-3-phenylpropionic acid] | < 100
17 | Nc1c(C(=O)c2ccc(F)cc2F)ccc(=O)n1-c1ccc(OCCCN[C@@H](Cc2ccccc2)C(=O)O)cc1 [Example 86, (S)-2-(3-{4-[6-Amino-5-(2,4-difluorobenzoyl)-2-oxo-2H-pyridin-1-yl]phenoxy}propylamino)-3-phenyl propionic acid] | > 1000

Results, then the molecule that gave them:

Row | IC50 [nM] | SMILES
18 | < 100 | Nc1c(C(=O)c2ccc(F)cc2F)ccc(=O)n1-c1c(F)cc(OCCCN[C@H](C(=O)O)c2ccccc2)cc1F [Example 95, (S)-(3-{4-[6-Amino-5-(2,4-difluorobenzoyl)-2-oxo-2H-pyridin-1-yl]-3,5-difluorophenoxy}propylamino)phenyl acetic acid]
19 | < 100 | Nc1c(C(=O)c2ccc(F)cc2F)ccc(=O)n1-c1c(F)cc(OCCCN[C@@H](Cc2ccccc2)C(=O)O)cc1F [Example 100, (S)-2-(3-{4-[6-Amino-5-(2,4-difluorobenzoyl)-2-oxo-2H-pyridin-1-yl]-3,5-difluorophenoxy}-propylamino)-3-phenyl propionic acid]
20 | < 100 | CC(C)C[C@H](NCCc1ccc(-n2c(N)c(C(=O)c3ccc(F)cc3F)ccc2=O)cc1)C(=O)O [Example 117, N-[2-(4-{6-amino-5-[(2,4-difluorophenyl)carbonyl]-2-oxopyridin-1(2H)-yl}phenyl)ethyl]-L-leucine]
21 | < 100 | CC(C)C[C@H](NCCCCCOc1cc(F)c(-n2c(N)c(C(=O)c3ccc(F)cc3)ccc2=O)c(F)c1)C(=O)O [Example 109, N-(5-{4-[6-amino-5-(4-fluorobenzoyl)-2-oxopyridin-1(2H)-yl]-3,5-difluorophenoxy}pentyl)-L-leucine]
22 | < 100 | CC(C)C[C@H](NCc1ccc(-n2c(N)c(C(=O)c3ccc(F)cc3F)ccc2=O)cc1)C(=O)O [Example 74, (S)-2-{4-[6-Amino-5-(2,4-difluorobenzoyl)-2-oxo-2H-pyridin-1-yl]benzylamino}-4-methylpentanoic acid]
23 | < 100 | CC(C)C[C@H](NCCCOc1ccc(-n2c(N)c(C(=O)c3ccc(F)cc3)ccc2=O)cc1)C(=O)O [Example 85, (S)-2-(3-{4-[6-Amino-5-(4-fluorobenzoyl)-2-oxo-2H-pyridin-1-yl]phenoxy}propylamino)-4-methylpentanoic acid]
24 | < 100 | CC(C)C[C@H](NCCCCCOc1cc(F)c(-n2c(N)c(C(=O)c3ccc(F)cc3F)ccc2=O)c(F)c1)C(=O)O [Example 116, N-(5-{4-[6-amino-5-(2,4-difluorobenzoyl)-2-oxopyridin-1(2H)-yl]-3,5-difluorophenoxy}pentyl)-L-leucine]
25 | < 100 | Cc1cc(C(=O)c2ccc(=O)n(-c3c(F)cc(OCCCN[C@@H](CC(C)C)C(=O)O)cc3F)c2N)ccc1F [Example 98, (S)-2-(3-{4-[6-Amino-5-(4-fluoro-3-methylbenzoyl)-2-oxo-2H-pyridin-1-yl]-3,5-difluorophenoxy}propylamino)-4-methylpentanoic acid]
26 | < 100 | Nc1c(C(=O)c2ccc(F)cc2)ccc(=O)n1-c1c(F)cc(OCCCN[C@H](C(=O)O)c2ccccc2)cc1F [Example 89]
27 | < 100 | Cc1cc(C(=O)c2ccc(=O)n(-c3c(F)cc(OCCCN[C@@H](Cc4ccccc4)C(=O)O)cc3F)c2N)ccc1F [Example 93, (S)-2-(3-{4-[6-Amino-5-(4-fluoro-3-methylbenzoyl)-2-oxo-2H-pyridin-1-yl]-3,5-difluorophenoxy}propylamino)-3-phenylpropionic acid]
28 | < 100 | CC(C)C[C@H](NCCCOc1cc(F)c(-n2c(N)c(C(=O)c3ccc(F)cc3F)ccc2=O)c(F)c1)C(=O)O [Example 97, (S)-2-(3-{4-[6-Amino-5-(2,4-difluorobenzoyl)-2-oxo-2H-pyridin-1-yl]-3,5-difluorophenoxy}propylamino)-4-methyl pentanoic acid]
29 | < 100 | CC(C)C[C@H](NCCCOc1cc(F)c(-n2c(N)c(C(=O)c3ccc(F)cc3)ccc2=O)c(F)c1)C(=O)O [Example 91]
30 | < 100 | Cc1cc(C(=O)c2ccc(=O)n(-c3c(F)cc(OCCCN[C@H](C(=O)O)c4ccccc4)cc3F)c2N)ccc1F [Example 99, (S)-(3-{4-[6-Amino-5-(4-fluoro-3-methylbenzoyl)-2-oxo-2H-pyridin-1-yl]-3,5-difluorophenoxy}propylamino)phenylacetic acid]
31 | < 100 | Nc1c(C(=O)c2ccc(F)cc2F)ccc(=O)n1-c1c(F)cc(OCCCN[C@@H](C(=O)O)c2ccccc2)cc1F [Example 106, (R)-(3-{4-[6-Amino-5-(2,4-difluorobenzoyl)-2-oxo-2H-pyridin-1-yl]-3,5-difluorophenoxy}propylamino)phenyl acetic acid]
32 | < 100 | CC(C)C[C@H](NCc1cc(F)c(-n2c(N)c(C(=O)c3ccc(F)cc3F)ccc2=O)c(F)c1)C(=O)O [Example 101]
33 | < 100 | Nc1c(C(=O)c2ccc(F)cc2)ccc(=O)n1-c1c(F)cc(OCCCN[C@@H](Cc2ccccc2)C(=O)O)cc1F [Example 90]
34 | < 100 | CC(C)C[C@H](NCCCOc1ccc(-n2c(N)c(C(=O)c3ccc(F)cc3F)ccc2=O)cc1)C(=O)O [Example 96, (S)-2-(3-{4-[6-Amino-5-(2,4-difluorobenzoyl)-2-oxo-2H-pyridin-1-yl]phenoxy}propylamino)-4-methyl pentanoic acid]
